Reference: patent US8729075B2, “Glucosylceramide synthase inhibition for the treatment of collapsing glomerulopathy and other glomerular disease” (Genzyme Corporation, priority 2008, dated 2014)
Read-outs that look alike come from different tables or passages of the source.

System: GM3
Experiment: GM3 Elisa assay
Assay type: cell-based
Settings: B16-FO cells, 2 days incubation, read-out: IC50_uM_Mean
Procedure: B16-FO cells from ATCC (American Tissue Culture Collection) were grown in DMEM media (ATCC) with 10% Fetal Bovine Serum (Hyclone) and Pen/Step/Glutamine (Biowhittaker). 4000 cells per well were plated on collagen coated plates (BD) and allowed to attach for 6 hours in an incubator (37 degrees, 5% CO2). After 6 hours the compounds and controls were added to the wells, the plates mixed and returned to the incubator for 2 days. Day of assay the cells were fixed for 20 minutes with 1% formaldehyde and then washed with Tris Buffered Saline (TBS) 3 times, 150 μl of TBS was left in the wells and 50 μl of goat serum (Invitrogen) was added, the plates mixed and incubated for 1 hour at room temperature. The plates were flicked and the cells incubated with the monoclonal Antibody to GM3 (NeuAc) (Cosmo) for 45 minutes as room temperature. The plates were then washed 3 times with TBS, leaving 150 μl of TBS in the wells and Peroxidase AffinPure F (ab′) 2 frag Gt Anti-mouse IgM, μ Chain Specific (Jackson Immno Research) was added in 50 μl, the plates mixed and incubated for 45 minutes at room temperature. The plates were washed 3 times with TBS, flicked and blotted and 100 μl of Quantablu (Pierce) was added to the wells and incubated for 1 hour then read on a Fluorometer at Ex 325 and Em 420. The data was then analyzed using standard programs.

SMILES | IC50 (48 h, Table 3) [nM] | further results
COc1ccc(C(=O)CCCCCC(=O)N[C@H](CN2CCC(C)(C)C2)[C@@H](O)c2ccc3c(c2)OCCO3)cc1 [Compound 520] | 1000 to 3000 | –
COc1ccc(OCCC(=O)N[C@H](CN2C(C)CCCC2C)[C@@H](O)c2ccc3c(c2)OCCO3)cc1 (stereo partly shown) [Compound 598] | 3000 to 10000 | –
COc1ccc(OCCC(=O)N[C@H](CN2CCC[C@@H]2C)[C@H](O)c2ccc3c(c2)OCCO3)cc1 [Compound 526] | 100 to 1000 | –
Cc1noc(CCCCC(=O)N[C@@H](CC2CCCC2)[C@H](O)c2ccc3c(c2)OCCO3)n1 [Compound 652] | 3000 to 10000 | –
CCCCCCCCCCCCCCCC(=O)N[C@H](CN(C)Cc1ccccc1)[C@@H](O)c1ccc2c(c1)OCCO2 [Compound 682] | 3000 to 10000 | –
COc1ccc(C(=O)CCCCCC(=O)N[C@H](CN2CC[C@@H](O)C2)[C@@H](O)c2ccc3c(c2)OCCO3)cc1 [Compound 518] | 100 to 1000 | –
CCCCCCCC(=O)N[C@H](CN1CCC[C@@H]1C)[C@H](O)c1ccc2c(c1)OCCO2 [Compound 527] | 1000 to 3000 | –
COc1ccc(OCCC(=O)N[C@H](CN2CCCC2)[C@@H](O)c2ccc3c(c2)OCCO3)cc1 [Compound 676] | 3000 to 10000 | –
CCCNC[C@@H](NC(=O)CCCCCC(=O)c1ccc(OC)cc1)[C@H](O)c1ccc2c(c1)OCCO2 [Compound 467] | 100 to 1000 | –
COCOc1ccc(C(=O)CCCC(=O)N[C@H](CN2CC[C@H](O)C2)[C@H](O)c2ccc(OC(C)C)cc2)cc1 [Compound 737] | 100 to 1000 | –
CCCCCCCC(=O)N[C@H](CN1CCC(C)(C)C1)[C@@H](O)c1ccc2c(c1)OCCO2 [Compound 521] | 3000 to 10000 | –
COc1ccc(C(=O)CCCCCC(=O)N[C@H](CNC(C)C)[C@@H](O)c2ccc3c(c2)OCCO3)cc1 [Compound 465] | 100 to 1000 | –
O=C(CCCCOCC(F)(F)F)N[C@H](CN1CCCC1)[C@H](O)c1ccc(CCc2ccccc2)cc1 [Compound 647] | 100 to 1000 | –
COc1ccc([C@@H](O)[C@@H](CN2CCCC2)NC(=O)CCCCCC(C)=O)cc1 [Compound 664] | 1000 to 3000 | –
COc1ccc(OCCC(=O)N[C@@H](CN2CCCC2)[C@H](O)c2ccc3c(c2)OCCO3)cc1 [Compound 675] | 3000 to 10000 | –
Cc1nccn1C[C@@H](NC(=O)CCCCCC(=O)c1ccc(F)cc1)[C@H](O)c1ccc2c(c1)OCCO2 [Compound 569] | 3000 to 10000 | –
COc1ccc(OCCC(=O)N[C@H](CN2CCC[C@H]2C)[C@H](O)c2ccc3c(c2)OCCO3)cc1 [Compound 528] | 1000 to 3000 | –
COC[C@@H]1CCCN1CC(NC(=O)CCCCCC(=O)c1ccc(OC)cc1)[C@@H](O)c1ccc2c(c1)OCCO2 (stereo partly shown) [Compound 533] | 100 to 1000 | –
COc1ccc(OCCC(=O)N[C@H](CN2CCCC2)[C@H](O)c2ccc3c(c2)OCCO3)cc1 [Compound 61, N-((1R,2R)-1-(2,3-dihydrobenzo[β][1,4]dioxin-6-yl)-1-hydroxy-3-(pyrrolidin-1-yl)propan-2-yl)-3-(4-methoxyphenoxy)propanamide] | – | IC50 (48 h, Table 1): ≤ 100 nM

SMILES | IC50 (48 h, Table 3) [nM] | further results
COC[C@H]1CCCN1C[C@@H](NC(=O)CCOc1ccc(OC)cc1)[C@H](O)c1ccc2c(c1)OCCO2 [Compound 538] | 3000 to 10000 | –
COCCOc1ccc(C(O)[C@@H](CN2CCCC2)NC(=O)CCCCC(=O)c2ccc(OC)cc2)cc1 (stereo partly shown) [Compound 417] | ≤ 100 | –
COc1ccc(OCCC(=O)NC(CN2[C@H](C)CC[C@H]2C)[C@H](O)c2ccc3c(c2)OCCO3)cc1 (stereo partly shown) [Compound 550] | 3000 to 10000 | –
CCCCOc1ccc([C@@H](O)[C@@H](CN2CC[C@@H](O)C2)NC(=O)CCCCCOCCF)cc1 [Compound 661] | 1000 to 3000 | –
COC(=O)CO[C@H](c1ccc2c(c1)OCO2)[C@@H](CN1CCCC1)NC(=O)CCOc1ccc(OC)cc1 [Compound 275] | – | IC50 (48 h, Table 2): ≤ 100 nM
CCCCCCCC(=O)NC(CN1[C@H](C)CC[C@H]1C)[C@H](O)c1ccc2c(c1)OCCO2 (stereo partly shown) [Compound 549] | 3000 to 10000 | –
COc1ccc(C(=O)CCCCC(=O)NC(CN2CCCC2)[C@H](O)c2ccc(OCCC3CCCCC3)cc2)cc1 (stereo partly shown) [Compound 419] | ≤ 100 | –
COc1ccc(CCCCN(C(=O)CCCCC(=O)c2ccc(OC)cc2)[C@H](CN2CCCC2)[C@H](O)c2ccc(O)cc2)cc1 [Compound 429] | 3000 to 10000 | –
COc1ccc(C(=O)CCCCCC(=O)NC(CN2[C@H](C)CC[C@H]2C)[C@H](O)c2ccc3c(c2)OCCO3)cc1 (stereo partly shown) [Compound 548] | 1000 to 3000 | –
CCCCOc1ccc([C@@H](O)[C@@H](CN2CC[C@@H](F)C2)NC(=O)CCCCCCCOC)cc1 [Compound 584] | 100 to 1000 | –
COc1ccc(OCCC(=O)N[C@@H](CN2CCCC2)[C@@H](O)c2ccc3c(c2)OCCO3)cc1 [Compound 674] | 3000 to 10000 | –
O=C(CCCCS(=O)(=O)C12CC3CCCC(C1)C(C3)C2)N[C@H](CN1CCCC1)[C@@H](O)c1ccc2c(c1)OCCO2 (stereo partly shown) [Compound 560] | 100 to 1000 | –
N#CCCCCCC(=O)C[C@H](CN1CCCC1)[C@H](O)c1ccc2c(c1)OCCO2 [Compound 632] | 3000 to 10000 | –
COc1ccc(C(=O)CCCCCC(=O)N[C@H](CN2CCC[C@H]2C)[C@H](O)c2ccc3c(c2)OCCO3)cc1 [Compound 529] | ≤ 100 | –
COc1ccc(C(=O)CCCCCC(=O)N[C@H](CN2CCC[C@@H]2C)[C@H](O)c2ccc3c(c2)OCCO3)cc1 [Compound 525] | ≤ 100 | –
O=C(CCCCCC1CCOCC1)N[C@H](CN1CC[C@@H](F)C1)[C@H](O)c1cccc(OCc2ccccc2)c1 [Compound 574] | 100 to 1000 | –
CC(=O)CCc1ccc(OCCC(=O)N[C@H](CN2CCCC2)[C@H](O)c2ccc3c(c2)OCCO3)cc1 [Compound 193, N-((1R,2R)-1-(2,3-dihydrobenzo[b][1,4]dioxin-6-yl)-1-hydroxy-3-(pyrrolidin-1-yl)propan-2-yl)-3-(4-(3-oxobutyl)phenoxy)propanamide(2R,3R)-2,3-dihydroxysuccinate] | – | IC50 (Table 1): 100 to 1000 nM
Cc1ccc(C(=O)CCC(=O)N[C@H](CC2CCCC2)[C@H](O)c2ccc3c(c2)CCCC3)cc1 [Compound 264] | – | IC50 (48 h, Table 2): ≤ 100 nM
